13 molecules from patent US5663331A, “Cephalosporin compounds” (Il-Dong Pharm. Co., Ltd., priority 1992, dated 1997) can be followed below.

Molecules are shown by their SMILES. Converted amounts (≈) assume the structure as drawn.

What all share (format): cell-based
Experiment [1] deals with Streptococcus faecalis ATCC 10541. The experiment in a line: MIC, two-fold dilution method, Streptococcus faecalis ATCC 10541. Conditions: 10^6 CFU per ml, 37° C., 18 to 20 hours; for Antibacterial Activity (MIC): Muller Hinton Broth; for MIC: Enterococcus faecalis, ATCC10541, Muller Hinton Broth, read-out: Antibacterial Activity (MIC). The method in brief: (§1)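 First, compound is diluted two-fold serially into Mueller Hinton Broth; next, test strain at 10^6 CFU/ml is added; finally, incubation runs 18–20 h at 37° C. before MIC determination.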

The subject of experiment [2] is Bacillus subtilis ATCC 6633. The experiment in a line: MIC, two-fold dilution method, Bacillus subtilis ATCC 6633. Conditions: 10^6 CFU per ml, 37° C., 18 to 20 hours; for Antibacterial Activity (MIC): Muller Hinton Broth; for MIC: ATCC6633, Muller Hinton Broth, read-out: Antibacterial Activity (MIC). The method in brief: as §1
Experiment [3] concerns Pseudomonas aeurginosa NCTC 10490. The experiment in a line: MIC, two-fold dilution method, Pseudomonas aeurginosa NCTC 10490. The note with it: 10^6 CFU per ml, 37° C., 18 to 20 hours; for Antibacterial Activity (MIC): Muller Hinton Broth; for MIC: NCTC10490, Muller Hinton Broth, read-out: Antibacterial Activity (MIC). The method in brief:
as §1

Experiment [4] concerns Esherichia coli ATCC 25922. The experiment in a line: MIC, two-fold dilution method, Esherichia coli ATCC 25922. The note with it: Muller Hinton Broth, 10^6 CFU per ml, 37° C., 18 to 20 hours; for MIC: read-out: Antibacterial Activity (MIC). A digest of the protocol:
as §1

In experiment [5] the test system is Staphylococcus aureus ATCC 65389. The experiment in a line: MIC, two-fold dilution method, Staphylococcus aureus ATCC 65389. The note with it: 10^6 CFU per ml, 37° C., 18 to 20 hours; for Antibacterial Activity (MIC): Muller Hinton Broth; for MIC: ATCC65389, Muller Hinton Broth, read-out: Antibacterial Activity (MIC). The method in brief:
as §1

The subject of experiment [6] is Staphylococcus epidermidis ATCC 12228. Kind of experiment: MIC, two-fold dilution method, Staphylococcus epidermidis ATCC 12228. Conditions: 10^6 CFU per ml, 37° C., 18 to 20 hours; for Antibacterial Activity (MIC): Muller Hinton Broth; for MIC: ATCC12228, Muller Hinton Broth, read-out: Antibacterial Activity (MIC). A digest of the protocol:
as §1

The subject of experiment [7] is Klebsiella pneumoniae ATCC 10031. Kind of experiment: MIC, two-fold dilution method, Klebsiella pneumoniae ATCC 10031. The note with it: 10^6 CFU per ml, 37° C., 18 to 20 hours; for Antibacterial Activity (MIC): Muller Hinton Broth; for MIC: ATCC10031, Muller Hinton Broth, read-out: Antibacterial Activity (MIC). A digest of the protocol: as §1

With `C#CCO/N=C(\C(=O)NC1C(=O)N2C(C(=O)[O-])=C(CSc3cc[n+](CC)c4cc(N5CCNCC5C)c(F)cc34)CS[C@H]12)c1csc(N)n1` (stereo partly shown) [Compound I-48, 7-[(Z)-2-(2-aminothiazol-4-yl)-2-(propargyloxyimino)acetamido]-3-[1-ethyl-6-fluoro-7-(2-methylpiperazinyl)quinolinium-4-yl]thiomethyl-3-cephem-4-carboxylate], the “Antibacterial Activity (MIC)” value stood at 0.39 µg/mL in experiment [1]; 0.1 µg/mL in experiment [2]; 1.56 µg/mL in experiment [3]; 3.13 µg/mL in experiment [4]; 0.39 µg/mL in experiment [5]; 0.78 µg/mL in experiment [6]. Moreover, the “Antibacterial Activity (MIC)” value in experiment [7] came out at 1.56 µg/mL.

Take `CO/N=C(\C(=O)NC1C(=O)N2C(C(=O)[O-])=C(CSc3cc[n+](C4CC4)c4cc(-n5cnc(C)c5)c(F)cc34)CSC12)c1csc(N)n1` (stereo not shown) [Compound I-20, 7-[(Z)-2-(2-aminothiazol-4-yl)-2-(methoxyimino)acetamido]-3-[1-cyclopropyl-6-fluoro-7-(4-methylimidazolyl)quinolinium-4-yl]thiomethyl-3-cephem-4-carboxylate]: the “Antibacterial Activity (MIC)” value is 0.2 µg/mL in experiment [1]; 0.2 µg/mL in experiment [2]; 1.56 µg/mL in experiment [3]; 1.56 µg/mL in experiment [4]; 0.78 µg/mL in experiment [5]; 0.39 µg/mL in experiment [6]. For the same molecule, in experiment [7], the “Antibacterial Activity (MIC)” value was found to be 0.1 µg/mL.

As to `CO/N=C(\C(=O)NC1C(=O)N2C(C(=O)[O-])=C(CSc3cc[n+](C4CC4)c4cc(N5CCN(C)CC5)c(F)cc34)CSC12)c1csc(N)n1` (stereo not shown) [Compound I-6, 7-[(Z)-2-(2-aminothiazol-4-yl)-2-(methoxyimino)acetamido]-3-[1-cyclopropyl-6-fluoro-7-(N-methylpiperazinyl)quinolinium-4-yl]thiomethyl-3-cephem-4-carboxylate], the MIC in experiment [1] is 0.2 µg/mL (≈ 0.281 µM); in experiment [2], 0.39 µg/mL (≈ 0.547 µM); in experiment [3] it was 1.56 µg/mL (≈ 2.19 µM); in experiment [4] it was 12.5 µg/mL (≈ 17.5 µM); in experiment [5], 0.39 µg/mL (≈ 0.547 µM); in experiment [6], 0.39 µg/mL (≈ 0.547 µM). Further, the MIC in experiment [7] is 0.1 µg/mL (≈ 0.14 µM).

With `C=CCO/N=C(\C(=O)NC1C(=O)N2C(C(=O)[O-])=C(CSc3cc[n+](C)c4cc(N5CCNCC5C)c(F)cc34)CS[C@H]12)c1csc(N)n1` (stereo partly shown) [Compound I-24, 7-[(Z)-2-(2-aminothiazol-4-yl)-2-(allyloxyimino)acetamido]-3-[1-methyl-6-fluoro-7-(2-methylpiperazinyl)quinolinium-4-yl]thiomethyl-3-cephem-4-carboxylate], the “Antibacterial Activity (MIC)” value came to 0.1 µg/mL in experiment [1]; 0.2 µg/mL in experiment [2]; 0.78 µg/mL in experiment [3]; 1.56 µg/mL in experiment [4]; 0.1 µg/mL in experiment [5]; 0.1 µg/mL in experiment [6]. Also, in experiment [7], the “Antibacterial Activity (MIC)” value amounted to 0.2 µg/mL.

Consider `C=CCO/N=C(\C(=O)NC1C(=O)N2C(C(=O)[O-])=C(CSc3cc[n+](C4CC4)c4cc(N5CCNCC5)c(F)cc34)CS[C@H]12)c1csc(N)n1` (stereo partly shown) [Compound I-25, 7-[(Z)-2-(2-aminothiazol-4-yl)-2-(allyloxyimino)acetamido]-3-(1-cyclopropyl-6-fluoro-7-piperazinylquinolinium-4-yl)thiomethyl-3-cephem-4-carboxylate], for which the MIC in experiment [1] turned out to be 0.2 µg/mL (≈ 0.276 µM); in experiment [2], 0.2 µg/mL (≈ 0.276 µM); in experiment [3], 0.39 µg/mL (≈ 0.538 µM); in experiment [4], 6.25 µg/mL (≈ 8.62 µM); in experiment [5], 0.78 µg/mL (≈ 1.08 µM); in experiment [6] it was 0.78 µg/mL (≈ 1.08 µM). Moreover, in experiment [7], the MIC is 0.39 µg/mL (≈ 0.538 µM).

For the molecule `C#CCO/N=C(\C(=O)NC1C(=O)N2C(C(=O)[O-])=C(CSc3cc[n+](CC=C)c4cc(N5CCN(C)CC5)c(F)cc34)CSC12)c1csc(N)n1` (stereo not shown) [Compound I-50, 7-[(Z)-2-(2-aminothiazol-4-yl)-2-(propargyloxyimino)acetamido]-3-[1-allyl-6-fluoro-7-(N-methylpiperazinyl)quinolinium-4-yl]thiomethyl-3-cephem-4-carboxylate], the MIC in experiment [1] was 1.56 µg/mL (≈ 2.12 µM); in experiment [2] it was 0.78 µg/mL (≈ 1.06 µM); in experiment [3], 3.13 µg/mL (≈ 4.25 µM); in experiment [4] it was 3.13 µg/mL (≈ 4.25 µM); in experiment [5], 3.13 µg/mL (≈ 4.25 µM); in experiment [6] it was 3.13 µg/mL (≈ 4.25 µM). Moreover, in experiment [7], the MIC worked out at 3.13 µg/mL (≈ 4.25 µM).

In the case of `C#CCO/N=C(\C(=O)NC1C(=O)N2C(C(=O)[O-])=C(CSc3cc[n+](C4CC4)c4cc(N5CCN(C)CC5)c(F)cc34)CSC12)c1csc(N)n1` (stereo not shown) [Compound I-42, 7-[(Z)-2-(2-aminothiazol-4-yl)-2-(propargyloxyimino)acetamido]-3-[1-cyclopropyl-6-fluoro-7-(N-methylpiperazinyl)quinolinium-4-yl]thiomethyl-3-cephem-4-carboxylate], the MIC in experiment [1] was 0.39 µg/mL (≈ 0.529 µM); in experiment [2], 0.2 µg/mL (≈ 0.271 µM); in experiment [3] it was 3.13 µg/mL (≈ 4.25 µM); in experiment [4] it was 3.13 µg/mL (≈ 4.25 µM); in experiment [5], 0.78 µg/mL (≈ 1.06 µM); in experiment [6], 0.78 µg/mL (≈ 1.06 µM). Further, in experiment [7], the MIC was found to be 3.13 µg/mL (≈ 4.25 µM).

For the molecule `C=CCO/N=C(\C(=O)NC1C(=O)N2C(C(=O)[O-])=C(CSc3cc[n+](C)c4cc(N5CCNCC5)c(F)cc34)CS[C@H]12)c1csc(N)n1` (stereo partly shown) [Compound I-21, 7-[(Z)-2-(2-aminothiazol-4-yl)-2-(allyloxyimino)acetamido]-3-(1-methyl-6-fluoro-7-piperazinylquinolinium-4-yl)thiomethyl-3-cephem-4-carboxylate], the MIC in experiment [1] is 0.025 µg/mL (≈ 0.0358 µM); in experiment [2], 0.39 µg/mL (≈ 0.558 µM); in experiment [3] it was 6.25 µg/mL (≈ 8.94 µM); in experiment [4], 3.13 µg/mL (≈ 4.48 µM); in experiment [5], 0.2 µg/mL (≈ 0.286 µM); in experiment [6] it was 0.1 µg/mL (≈ 0.143 µM). In experiment [7], the MIC was 0.1 µg/mL (≈ 0.143 µM).

Consider `C#CCO/N=C(\C(=O)NC1C(=O)N2C(C(=O)[O-])=C(CSc3cc[n+](C4CC4)c4cc(N5CCN(CC)CC5)c(F)cc34)CSC12)c1csc(N)n1` (stereo not shown) [Compound I-43], for which the MIC amounted to 0.05 µg/mL (≈ 0.0666 µM) in experiment [1]; 0.1 µg/mL (≈ 0.133 µM) in experiment [2]; 0.78 µg/mL (≈ 1.04 µM) in experiment [3]; 1.56 µg/mL (≈ 2.08 µM) in experiment [4]; 0.1 µg/mL (≈ 0.133 µM) in experiment [5]; 0.1 µg/mL (≈ 0.133 µM) in experiment [6]. The MIC in experiment [7] was found to be 0.78 µg/mL (≈ 1.04 µM).

With `CC(C)(O/N=C(\C(=O)NC1C(=O)N2C(C(=O)[O-])=C(CSc3cc[n+](C4CC4)c4cc(N5CCNCC5)c(F)cc34)CS[C@H]12)c1csc(N)n1)C(=O)O` (stereo partly shown) [Compound I-57, 7-[(Z)-2-(2-aminothiazol-4-yl)-2-(2-carboxyprop-2-oxyimino)acetamido]-3-(1-cyclopropyl-6-fluoro-7-piperazinylquinolinium-4-yl)thiomethyl-3-cephem-4-carboxylate], the MIC in experiment [1] amounted to 1.56 µg/mL (≈ 2.02 µM); in experiment [2], 0.78 µg/mL (≈ 1.01 µM); in experiment [3], 0.78 µg/mL (≈ 1.01 µM); in experiment [4] it was 0.78 µg/mL (≈ 1.01 µM); in experiment [5], 6.25 µg/mL (≈ 8.11 µM); in experiment [6] it was 6.25 µg/mL (≈ 8.11 µM). The minimal inhibitory concentration (MIC) in experiment [7] is 0.39 µg/mL (≈ 0.506 µM).

Consider `C#CCO/N=C(\C(=O)NC1C(=O)N2C(C(=O)[O-])=C(CSc3cc[n+](CC=C)c4cc(N5CCN(CC)CC5)c(F)cc34)CSC12)c1csc(N)n1` (stereo not shown) [Compound I-51, 7-[(Z)-2-(2-aminothiazol-4-yl)-2-(propargyloxyimino)acetamido]-3-[1-allyl-6-fluoro-7-(1-ethylpiperazinyl)quinolinium-4-yl]thiomethyl-3-cephem-4-carboxylate], for which the MIC in experiment [1] was 1.56 µg/mL (≈ 2.08 µM); in experiment [2], 0.78 µg/mL (≈ 1.04 µM); in experiment [3], 1.56 µg/mL (≈ 2.08 µM); in experiment [4], 0.78 µg/mL (≈ 1.04 µM); in experiment [5], 3.13 µg/mL (≈ 4.17 µM); in experiment [6] it was 1.56 µg/mL (≈ 2.08 µM). Moreover, the MIC in experiment [7] worked out at 0.78 µg/mL (≈ 1.04 µM).

Take `CC[n+]1ccc(SCC2=C(C(=O)[O-])N3C(=O)C(NC(=O)/C(=N\OC)c4csc(N)n4)C3SC2)c2cc(F)c(N3CCNCC3)cc21` (stereo not shown) [Compound I-9, 7-[(Z)-2-(2-aminothiazol-4-yl)-2-(methoxyimino)acetamido]-3-(1-ethyl-6-fluoro-7-piperazinylquinolinum-4-yl)thiomethyl-3-cephem-4-carboxylate]: the MIC was 0.1 µg/mL (≈ 0.146 µM) in experiment [1]; 0.1 µg/mL (≈ 0.146 µM) in experiment [2]; 3.13 µg/mL (≈ 4.56 µM) in experiment [3]; 1.56 µg/mL (≈ 2.27 µM) in experiment [4]; 0.2 µg/mL (≈ 0.291 µM) in experiment [5]; 0.2 µg/mL (≈ 0.291 µM) in experiment [6]. The MIC in experiment [7] was determined as 0.78 µg/mL (≈ 1.14 µM).

Take `C=CCO/N=C(\C(=O)NC1C(=O)N2C(C(=O)[O-])=C(CSc3cc[n+](CC=C)c4cc(N5CCNCC5)c(F)cc34)CS[C@H]12)c1csc(N)n1` (stereo partly shown) [Compound I-33, 7-[(Z)-2-(2-aminothiazol-4-yl)-2-(allyloxyimino)acetamido]-3-(1-allyl-6-fluoro-7-piperazinylquinolinium-4-yl)thiomethyl-3-cephem-4-carboxylate]: the MIC came out at 0.39 µg/mL (≈ 0.538 µM) in experiment [1]; 0.78 µg/mL (≈ 1.08 µM) in experiment [2]; 3.13 µg/mL (≈ 4.32 µM) in experiment [3]; 3.13 µg/mL (≈ 4.32 µM) in experiment [4]; 0.78 µg/mL (≈ 1.08 µM) in experiment [5]; 1.56 µg/mL (≈ 2.15 µM) in experiment [6]. Moreover, the MIC in experiment [7] worked out at 1.56 µg/mL (≈ 2.15 µM).

As usually defined, the MIC is the lowest concentration that inhibits growth of the organism.
